Patent US11279690B2, “Inhibitors of glutaminyl cyclase” (VIVORIAN THERAPEUTICS N.V, priority 2017, dated 2022)

Experiments:
hQC = hQC (Homo sapiens, UniProt Q16769); assay: QC inhibitor assay, determination of Ki at pH 6.0; format: biochemical; conditions: read-out: Ki hQC pH6.0
Protocol: All measurements were performed with a BioAssay Reader HTS-7000Plus for microplates (Perkin Elmer) at 30° C. QC activity was evaluated fluorometrically using H-Gln-βNA. The samples consisted of 0.2 mM fluorogenic substrate, 0.25 U pyroglutamyl aminopeptidase (Unizyme, Horsholm, Denmark) in 0.2 M Tris/HCl, pH 8.0 containing 20 mM EDTA and an appropriately diluted aliquot of QC in a final volume of […]. Excitation/emission wavelengths were 320/410 nm. The assay reactions were initiated by addition of glutaminyl cyclase. QC activity was determined from a standard curve of β-naphthylamine under assay conditions. One unit is defined as the amount of QC catalyzing the formation of 1 μmol pGlu-βNA from H-Gln-βNA per minute under the described conditions.
In a second fluorometric assay, QC was activity determined using H-Gln-AMC as substrate. Reactions were carried out at 30° C. utilizing the NOVOStar reader for microplates (BMG labtechnologies). The samples consisted of varying concentrations of the fluorogenic substrate, 0.1 U pyroglutamyl aminopeptidase (Qiagen) in 0.05 M Tris/HCl, pH 8.0 containing 5 mM EDTA and an appropriately diluted aliquot of QC in a final volume of 250 μl. Excitation/emission wavelengths were 380/460 nm. The assay reactions were initiated by addition of glutaminyl cyclase. QC activity was determined from a standard curve of 7-amino-4-methylcoumarin under assay conditions. The kinetic data were evaluated using GraFit software.
This novel assay was used to determine the kinetic parameters for most of the QC substrates. […] Samples consisted of the respective QC substrate, 0.3 mM NADH, 14 mM α-Ketoglutaric acid and 30 U/ml glutamate dehydrogenase in a final volume of 250 μl. Reactions were started by addition of QC and persued by monitoring of the decrease in absorbance at 340 nm for 8-15 min.
The initial velocities were evaluated and the enzymatic activity was determined from a standard curve of ammonia under assay conditions. All samples were measured at 30° C., using either the […]luor Plus or the Sunrise (both from TECAN) reader for microplates. Kinetic data was evaluated using GraFit software.
(§1) For inhibitor testing, the sample composition was the same as described above, except of the putative inhibitory compound added. For a rapid test of QC-inhibition, samples contained 4 mM of the respective inhibitor and a substrate concentration at 1 KM. For detailed investigations of the inhibition and determination of Ki-values, influence of the inhibitor on the auxiliary enzymes was investigated first. […] The inhibitory constant was evaluated by fitting the set of progress curves to the general equation for competitive inhibition using GraFit software. The inhibitor assay was performed at two different pH levels, pH 6.0 and pH 8.0: The respective pH value in the assay solution was adjusted using conventional methods.

hQPCTL = hQPCTL (Homo sapiens, UniProt Q9NXS2); assay: Inhibitor assay, determination of Ki against the QC isoenzyme at pH 6; format: biochemical; conditions: read-out: Ki hQPCTL pH6
Sequence of hQPCTL (Q9NXS2 whole entry): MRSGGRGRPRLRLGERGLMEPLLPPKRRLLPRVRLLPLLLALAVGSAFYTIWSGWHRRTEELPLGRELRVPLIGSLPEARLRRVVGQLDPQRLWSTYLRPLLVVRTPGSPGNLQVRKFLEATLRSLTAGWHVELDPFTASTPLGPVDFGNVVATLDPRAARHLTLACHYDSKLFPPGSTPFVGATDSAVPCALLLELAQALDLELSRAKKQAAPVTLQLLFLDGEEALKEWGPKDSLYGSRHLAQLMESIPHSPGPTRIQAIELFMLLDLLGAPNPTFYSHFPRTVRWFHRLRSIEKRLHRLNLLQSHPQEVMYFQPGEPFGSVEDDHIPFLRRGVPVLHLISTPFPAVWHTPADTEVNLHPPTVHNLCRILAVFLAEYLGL
Protocol: as §1

[1] = Pharmacokinetic parameters in mice, plasma, brain and CSF after oral administration; format: in vivo, mice (strain CD-1); conditions: mice (CD-1), 30 mg/kg orally in 0.8% Methocel
Protocol: Three mice (strain CD-1) were administered orally 30 mg/kg of each test compound dissolved in 0.8% Methocel. Samples were taken at the time points 10 min, 0.5, 1, 2, 4 and 8 hr after test compound administration for plasma and brain collection.
The mice were anesthetized with Isoflurane. Approximate […] of each blood sample were collected via cardiac puncture for terminal bleeding into K2EDTA tubes. Blood samples were put on ice and centrifuged at 2000 g for 5 min to obtain plasma sample within 15 minutes. CSF collection: The animals were euthanized with pure CO2 inhalation. A mid line incision was made on the neck. The muscle under the skin was cut to expose the cisterna magna. The cisterna magna was penetrated with the sharp end of a capillary and CSF was collected via capillarity.
After CSF collection, a perfusion with 7x total mouse blood volume (approximate 15 ml) of ice-cold PBS (pH 7.4) was conducted via cardiac puncture before brain collection. A mid-line incision was made in the animal scalp. The brain was removed and rinsed with cold saline. Brain was placed into a screw-top tube and weighed. Brain samples were homogenized for 2 min with 3 volumes (v/w) of PBS (pH 7.4) and then analyzed with LC-MS/MS. The brain concentration was corrected with a dilution factor of 4 as following: Brain concentration=brain homogenate conc.×4, assuming 1 g wet brain tissue equals to 1 ml.
Plasma, brain and CSF samples were stored at approximately −80° C. until analysis.
For plasma samples: An aliquot of 20 μl sample was added with 200 μ IS (Diclofenac, 200 ng/mL) in ACN, the mixture was vortexed for 2 min and centrifuged at 12.000 rpm for 5 min. 1 μl supernatant was injected for LC-MS/MS analysis.
For diluted plasma samples: An aliquot of 4 μl sample was added with 16 μl blank plasma, mixed well, added with 200 μl IS (Diclofenac, 200 ng/ml) in ACN.
For Brain samples: Brain tissue was homogenized for 2 min with 3 volumes (v/w) of PBS. An aliquot of 20 μl sample was added with 200 μl IS (Diclofenac, 200 ng/ml) in ACN, the mixture was vortexed for 2 min and centrifuged at 12000 rpm for 5 min. 1 μl supernatant was injected for LC-MS/MS analysis.
For CSF samples: The CSF sample was added with corresponding 20 fold volume of IS (Diclofenac, 200 ng/ml) in ACN, the mixture was vortexed for 2 min. 3 μl supernatant was injected for LC-MS/MS analysis.

Sequence of hQC (Q16769 29-361): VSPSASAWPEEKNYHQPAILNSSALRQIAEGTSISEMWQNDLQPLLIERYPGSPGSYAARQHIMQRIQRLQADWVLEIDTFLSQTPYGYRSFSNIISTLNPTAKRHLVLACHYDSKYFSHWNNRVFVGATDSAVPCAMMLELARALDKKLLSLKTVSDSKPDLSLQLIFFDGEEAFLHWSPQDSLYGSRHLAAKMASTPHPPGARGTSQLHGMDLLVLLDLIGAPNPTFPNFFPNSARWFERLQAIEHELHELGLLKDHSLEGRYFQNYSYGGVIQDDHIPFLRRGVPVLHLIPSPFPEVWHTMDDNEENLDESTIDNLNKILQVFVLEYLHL

Row | SMILES | Ki (hQC) [nM] | Ki (hQPCTL) [nM] | blood-brain-barrier crossing behaviour [1] | AUC-values in the brain [1] | melting point [°C]
1 | O=C1CC(c2ccccc2)N1c1ccc2[nH]cnc2c1 (racemic) [Example 1, 1-(1H-benzo[d]imidazol-5-yl)-4-phenylazetidin-2-one] | 170 | 33.4 |  |  | 
2 | COc1cc(F)c(C2CC(=O)N2c2ccc3nc[nH]c3c2)c(F)c1 (racemic) [Example 4, 1-(1H-benzo[d]imidazol-5-yl)-4-(2,6-difluoro-4-methoxyphenyl)azetidin-2-one] | 8.6 | 2.5 | good | good | 
3 | O=C1C[C@H](c2ccccc2)N1c1ccc2nc[nH]c2c1 [Example 2, (R)-1-(1H-benzo[d]imidazol-6-yl)-4-phenylazetidin-2-one] | 20.8 | 6.9 |  |  | 
4 | O=C1C[C@H](c2ccc(OCCC(F)F)c(F)c2F)N1c1ccc2[nH]cnc2c1 [Example 7, (R)-4-(4-(3,3-difluoropropoxy)-2,3-difluorophenyl)-1-(1H-benzo[d]imidazol-5-yl)azetidin-2-one] | 2.4 | 1.1 | good | good | 165 to 170
5 | O=C1C[C@@H](c2ccc(OCCC(F)F)c(F)c2F)N1c1ccc2[nH]cnc2c1 [Example 8, (S)-4-(4-(3,3-difluoropropoxy)-2,3-difluorophenyl)-1-(1H-benzo[d]imidazol-5-yl)azetidin-2-one] |  |  |  |  | 148 to 153
6 | O=C1C[C@H](c2c(F)cc(OCCC(F)F)cc2F)N1c1ccc2[nH]cnc2c1 [Example 9, (R)-4-(4-(3,3-difluoropropoxy)-2,6-difluorophenyl)-1-(1H-benzo[d]imidazol-5-yl)azetidin-2-one] |  |  | good | good | 
7 | CC(F)(F)COc1ccc([C@H]2CC(=O)N2c2ccc3[nH]cnc3c2)c(F)c1F [Example 13, (R)-4-(4-(2,2-difluoropropoxy)-2,3-difluorophenyl)-1-(1H-benzo[d]imidazol-5-yl)azetidin-2-one] | 2.3 | 2 | good | good | 173 to 177

Next, values leading:

Row | Ki (hQC) [nM] | Ki (hQPCTL) [nM] | blood-brain-barrier crossing behaviour [1] | AUC-values in the brain [1] | melting point [°C] | SMILES
8 | 3.3 | 0.86 | good | good | 150 to 155 | O=C1C[C@H](c2ccc(OCCC(F)F)cc2F)N1c1ccc2[nH]cnc2c1 [Example 5, (R)-4-(4-(3,3-difluoropropoxy)-2-fluorophenyl)-1-(1H-benzo[d]imidazol-5-yl)azetidin-2-one]
9 |  |  |  |  | 137 to 142 | O=C1C[C@@H](c2ccc(OCCC(F)F)cc2F)N1c1ccc2[nH]cnc2c1 [Example 6, (S)-4-(4-(3,3-difluoropropoxy)-2-fluorophenyl)-1-(1H-benzo[d]imidazol-5-yl)azetidin-2-one]
10 | 3.8 | 1.3 | good | good | 165 to 170 | CC(F)(F)COc1ccc([C@H]2CC(=O)N2c2ccc3[nH]cnc3c2)c(F)c1 [Example 11, (R)-4-(4-(2,2-difluoropropoxy)-2-fluorophenyl)-1-(1H-benzo[d]imidazol-5-yl)azetidin-2-one]
11 |  |  |  |  | 203 to 208 | CC(F)(F)COc1ccc([C@@H]2CC(=O)N2c2ccc3[nH]cnc3c2)c(F)c1 [Example 12, (S)-4-(4-(2,2-difluoropropoxy)-2-fluorophenyl)-1-(1H-benzo[d]imidazol-5-yl)azetidin-2-one]
12 |  |  |  |  | 170 to 174 | CC(F)(F)COc1ccc([C@@H]2CC(=O)N2c2ccc3[nH]cnc3c2)c(F)c1F [Example 14, (S)-4-(4-(2,2-difluoropropoxy)-2,3-difluorophenyl)-1-(1H-benzo[d]imidazol-5-yl)azetidin-2-one]
13 | 3.6 | 0.3 | good | good | 158 to 162 | CC(F)(F)COc1cc(F)c([C@H]2CC(=O)N2c2ccc3[nH]cnc3c2)c(F)c1 [Example 15, (R)-4-(4-(2,2-difluoropropoxy)-2,6-difluorophenyl)-1-(1H-benzo[d]imidazol-5-yl)azetidin-2-one]
14 |  |  |  |  | 163 to 166 | CC(F)(F)COc1cc(F)c([C@@H]2CC(=O)N2c2ccc3[nH]cnc3c2)c(F)c1 [Example 16, (S)-4-(4-(2,2-difluoropropoxy)-2,6-difluorophenyl)-1-(1H-benzo[d]imidazol-5-yl)azetidin-2-one]
